Experimental data: paper PMC9182130 (Molecules, 2022)

Assays:
[1] = human, in vivo
[2] = 4 °C
[3] = human
[4] = human; remark: listed apart in the source

Row | SMILES | half-life compared with ST-246 [1] | maximum concentration in plasma compared with ST-246 [1] | dose of ST-246 equivalent to 600 mg of NIOCH-14 according to the area under the curve ([1]; po) | AUCo-inf ([1]; po, 600 mg) | Cl/F ([1]; po, 600 mg) | maximal ST-246 concentration in real-world plasma samples ([1]; po) | time of stability in autosampler [2] | time of stability at −20 °C [3] | time without degradation at −20 °C [3] | % of nominal concentrations after three consecutive freeze-thaw cycles [4]
1 | O=C(NNC(=O)C1C2C=CC(C3CC23)C1C(=O)O)c1ccc(C(F)(F)F)cc1 (stereo not shown) [NIOCH-14] | longer | lower | ~250 mg | 8864 ± 4117 | 80 ± 37 L/h | – | – | – | – | –
2 | O=C(NN1C(=O)[C@@H]2[C@@H]3C=C[C@@H]([C@H]4C[C@@H]34)[C@@H]2C1=O)c1ccc(C(F)(F)F)cc1 [ST-246, tecovirimat] | – | – | – | – | – | ≤ 1000 ng/mL | 48 h | ≥ 90 days | at least 3 months | 96–115%
